Reference: patent US20130156728A1, “COMPOSITION FOR NEUROLOGICAL OR AUTOIMMUNE DISEASES” (National Institutes of Health (NIH), U.S. Dept. of Health …, priority 2010, published 2013)

Columns and labels:
mice = experiment: Characterization of subacute MPTP model (striatal dopamine, splenocyte counts); type: in vivo, mouse
Description: To establish a subacute MPTP model, we tested administration of 10 mg/kg/day and 20 mg/kg/day MPTP for consecutive 5 days.
Data are represented as mean±SEM.

[1] = tested on: humans with type 1 diabetes; conditions: injections; cited from earlier work
chronic MPTP model = experiment: Vaccination in chronic MPTP model (striatal DA and DAT); type: in vivo, C57BL/6 mice
[2] = tested on: mouse models of Alzheimer's disease; conditions: without adjuvant; cited from earlier work

With `CN1CC=C(c2ccccc2)CC1` [MPTP, 1-Methyl-4-Phenyl-1,2,3,6-Tetrahydro-Pyridine] the “effect on striatal dopamine levels” value (mice; 10 mg/kg/day MPTP for 5 days, four days after the last treatment) was “no obvious effect”, the “decrease of striatal dopamine level compared to PBS treated mice” value (mice; 20 mg/kg/day MPTP for 5 days, four days after the last treatment) was 70% and the “effect on splenocyte counts (immunotoxicity)” value (mice; subacute MPTP, 10 and 20 mg/kg/day for 5 days) was “did not affect”.

In the case of “GAD65: isoform of glutamic acid decarboxylase, 65 kDa”, the “preservation of some insulin production” value [1] is given as 30 months.

In the case of “glatiramer acetate [Copaxone (without adjuvant)]”, the “protection of striatal dopamine (DA) and dopamine transporter (DAT)” value (chronic MPTP model) is listed as “no protective effect” and the “effect in mouse models of Alzheimer's disease” value [2] is listed as “beneficial”.
